{"source": "patent US20120232011A1", "about": "“Use of Rapamycin and Rapamycin Derivatives for the Treatment of Bone Loss” (priority 2003, published 2012)", "key": {"[1]": {"system": "bone-resorbing osteoclasts differentiated from non-adherent bone marrow mononuclear cells", "test": "Mouse osteoclastogenesis assay (osteoclast formation and activity)", "format": "cell-based", "experimental": "Non-adherent bone marrow mononuclear cells from 5-week-old male mice cells are differentiated into bone-resorbing osteoclasts by treatment with a cytokine cocktail containing receptor activator of NF kappa B ligand (RANKL), macrophage-colony stimulating factor (M-CSF) and interleukin-1 (IL-1) alpha. Osteoclast formation is measured after 6 days by quantifying the number of tartrate-resistant acid phosphatase (TRAP)-positive multinucleated cells generated in plastic wells on a 48-well plate. Osteoclast activity is measured after 12 days by quantifying the area of resorbed dentine slices placed in wells on a 48-well plate. Treatment with rapamycin or the rapamycin derivative, e.g. Compound A, starts at the beginning of cell culture, together with the cytokine treatment."}, "[2]": {"system": "Cdc2-related serine/threonine PFTAIREI", "test": "Gene expression in human osteoclasts: PFTAIREI", "format": "cell-based", "settings": "human osteoclasts after treatment", "experimental": "(§1) A.3 Gene expression is analyzed according to a method known in the art, in human osteoclasts after treatment with rapamycin or a derivative thereof."}, "[3]": {"system": "cancellous bone loss after ovariectomy", "test": "Ovariectomized rat model", "format": "in vivo", "experimental": "Before operation, the tibial bone mass and geometry of the animals is measured at baseline by dual-energy x-ray absorptiometry (DEXA) and periphere quantitative computer tomography (pQCT). Following ovariectomy (OVX) or sham operation, skeletally mature rats are treated for 8 weeks daily with 0.15 mg/kg, 0.5 mg/kg, 1.5 mg/kg, or 3.0 mg/kg of rapamycin or a rapamycin derivative, e.g. Compound A, or vehicle alone by oral administration or once a week with 1.5 mg/kg or 5.0 mg/kg of rapamycin or a rapamycin derivative; e.g. Compound A. At the beginning of the treatment, animals receive a fluorochrome label, e.g. calcein (e.g. 30 mg/kg, subcutaneous (s.c.)). Changes in bone mass and geometry (pQCT, DEXA) are evaluated in vivo after 4 weeks of treatment and at 8 weeks before necropsy. Body weight is monitored weekly. The animals are administered two further fluorochrome labels for marking of bone mineralization prior to necropsy, e.g. alizarin e.g. 20 mg/kg, s.c., 10 days prior to necropsy, and calcein e.g. 30 mg/kg, s.c., 3 days prior to necropsy. Blood samples (500 μl blood) are taken in heparin before necropsy and frozen at −20° C. for analysis of calcium, phosphate, TRAP, ALP, and osteocalcin. DEXA measurements are carried out at necropsy on excised tibia, femur, and lumbar vertebrae."}, "[4]": {"system": "osteoclast-specific protease cathepsin K", "test": "Gene expression in human osteoclasts: cathepsin K", "format": "cell-based", "settings": "human osteoclasts after treatment", "experimental": "as §1"}, "[5]": {"system": "bone-resorbing osteoclasts differentiated from peripheral blood mononuclear cells", "test": "Human osteoclastogenesis assay", "format": "cell-based", "experimental": "Peripheral blood mononuclear cells from healthy male donors are differentiated into bone-resorbing osteoclasts by treatment with a cytokine cocktail containing RANKL, M-CSF and transforming growth factor (TGF)-beta 1. Osteoclast formation is measured after 17 days by quantifying the number of TRAP-positive multinucleated cells generated in plastic wells on a 96-well plate. Osteoclast activity is measured after 17 days by quantifying the area of resorbed bone on bovine cortical bone slices placed in wells on a 96-well plate. Treatment with rapamycin or the rapamycin derivative, e.g. Compound A, starts at the beginning of cell culture, together with the cytokine treatment. Collagen fragments are measured by enzyme linked immunosorbent assay (ELISA)."}, "[6]": {"system": "mouse pre-osteoblastic cell line MC3T3-1b", "test": "Osteoblast differentiation in MC3T3-1b cells (alkaline phosphatase staining)", "format": "cell-based", "settings": "MC3T3-1b cells with osteogenic stimulus (BMP-2, ascorbic acid, beta-glycerophosphate); read-out: Alkaline phosphatase (ALP) staining IC50", "experimental": "Osteoblast differentiation is evaluated in mouse pre-osteoblastic cell line MC3T3-1b, stimulated to differentiate with osteogenic stimulus (a mixture of bone morphogenetic protein 2 (BMP-2), ascorbic acid and beta-glycerophosphate). Osteoplast activity is measured by quantifying culture area covered with alkaline phosphate-positive cells on a 48-well plate. Treatment with rapamycin or the rapamycin derivative, e.g. Compound A, starts at the beginning of cell culture, together with the osteogenic stimulus treatment."}}, "note": "Read-outs that look alike come from different tables or passages of the source."}
{"smiles": "CO[C@H]1C[C@@H]2CC[C@@H](C)[C@@](O)(O2)C(=O)C(=O)N2CCCC[C@H]2C(=O)O[C@H]([C@H](C)C[C@@H]2CC[C@@H](OCCO)[C@H](OC)C2)CC(=O)[C@H](C)/C=C(\\C)[C@@H](O)[C@@H](OC)C(=O)[C@H](C)C[C@H](C)/C=C/C=C/C=C/1C", "note": "[Compound A, 40-O-(2-hydroxyethyl)-rapamycin]", "values": [{"measurement": "IC50", "setting": "[1]; TRAP-positive multinucleated cells after 6 days, read-out: osteoclast formation IC50", "result": "10.5 ± 4.6", "unit": "nM"}, {"measurement": "IC50", "setting": "[1]; area of resorbed dentine slices after 12 days, read-out: osteoclast activity IC50", "result": "0.6 ± 0.3", "unit": "nM"}, {"measurement": "increase of PFTAIREI expression", "setting": "[2]", "result": "about 300%"}, {"measurement": "effect on trabecular number", "setting": "[3]", "result": "inhibits reduction of trabecular number"}, {"measurement": "inhibition of cancellous bone loss", "setting": "[3]; 3 mg/kg/day, oral", "result": 60, "unit": "%"}, {"measurement": "reduction of cathepsin K expression", "setting": "[4]", "result": "about 78%"}, {"measurement": "IC50", "setting": "[5]; ELISA, read-out: Collagen fragment release IC50", "result": "4 ± 0.5", "unit": "nM"}, {"measurement": "IC50", "setting": "[5]; TRAP-positive multinucleated cells after 17 days, read-out: osteoclast formation IC50", "result": "7.7 ± 1.1", "unit": "nM"}, {"measurement": "IC50", "setting": "[5]; bovine cortical bone slices, 17 days, read-out: Resorbed area IC50", "result": "3.4 ± 0.3", "unit": "nM"}, {"measurement": "IC50", "setting": "[6]", "result": "13.5 ± 2.4", "unit": "nM"}]}
